# Legend:
# KLK3 = target: T1, KLK3 (Homo sapiens, UniProt P07288); test: Probe labeling of KLK3 in LNCaP conditioned media (in-gel fluorescence / streptavidin blot); assay type: biochemical; details: LNCaP CM, 1 h treatment
# T1 construct: endogenous in cells; host or cells: LNCaP cells treated with 10 nM DHT; conditioned medium
# Description: An optimized tetrapeptide designed to occupy the KLK S1–S4 subsites was envisaged for the ABP specificity element, grafted onto a peptidyl-diphenyl phosphonate (DPP) warhead which reacts specifically and exclusively with the Ser195 residue in the KLK3 active site.[21] […] We therefore replaced the boronic acid in 2 with the DPP moiety in 1 and capped the N-terminus with a tetramethyl rhodamine (TAMRA) fluorophore to afford 3, which served as a prototype ABP for KLK3. A mixed solid-phase and solution-phase approach was used for the synthesis of peptidyl-DPP compounds, as described previously (Figures S1 and S2).[24] […]
# Despite exquisite selectivity, maximal KLK3 labeling was achieved only after treatment with 20 μM 3 for 1 h. We therefore optimized probe potency by systematically modifying each amino acid side chain in the P1–P4 positions of a morpholine-capped peptidyl-DPP inhibitor scaffold and determined the potency of each analogue using competitive-ABPP against 3.[25],[26] […] Second generation biotinylated 20 and fluorescent 21 ABPs (Figures 2G and S7) based on this scaffold retained exquisite selectivity for KLK3 in LNCaP CM, but in contrast to first-generation ABP 3 achieved maximum labeling at only 1 μM and readily detectable labeling down to 130 nM (Figures 2H and S7). […]
# KLK2 = target: T2, KLK2 (Homo sapiens, UniProt P20151); test: Inhibition of KLK2 after incubation with 50 µM probe (Figure S8); assay type: biochemical; details: 30 minutes
# T2 construct: purchased R&D Systems
# Protocol: Table S1: Antibodies used throughout this project
# Protein Supplier Cat. No. Host /clonal Immunogen
# KLK2 Abcam Ab124899 Rabbit Mono Synthetic peptide within amino […]
# KLK3 SCBT sc-7316 Mouse Mono Full length KLK3 of human origin
# KLK14 Abcam Ab128957 Rabbit Mono Synthetic peptide within the C- […]
# Transferrin Abcam Ab66952 Rabbit Poly Full length Transferrin of human […]
# HSP90 SCBT sc-69703 Mouse Mono Full length HSP90 of human
# In gel-fluorescence: LNCaP conditioned media (50 µg) was treated with a fluorescent activity-based probe for 1 h. After 1 h, proteins were precipitated using the aforementioned procedure and resuspended in a 3:1 ratio of PBS and sample loading buffer to a concentration of 1 mg/mL. After boiling for 5 min, 10 µL of sample was loaded on to a hand cast 12 % Bis-Tris gel and proteins were separated by SDS-PAGE as described above. Gels were then scanned for fluorescence at the appropriate wavelength.
# Immunoprecipitation: LNCaP conditioned media (100 µg) was treated with the appropriate ABP for 1h. Proteins were precipitated using the CHCl3/MeOH procedure outlined above and resuspended in RIPA buffer (20 mM Tris, 150 mM NaCl, 1 mM EDTA, 1mM EGTA, 1 % NP-40, 1 % sodium deoxycholate, 2.5 mM sodium pyrophosphate, 1 mM glycerophosphate, 1 mM Na3VO4 pH 7.5) to a concentration of 1 mg/mL. […]
# T1 sequence (P07288 25-261): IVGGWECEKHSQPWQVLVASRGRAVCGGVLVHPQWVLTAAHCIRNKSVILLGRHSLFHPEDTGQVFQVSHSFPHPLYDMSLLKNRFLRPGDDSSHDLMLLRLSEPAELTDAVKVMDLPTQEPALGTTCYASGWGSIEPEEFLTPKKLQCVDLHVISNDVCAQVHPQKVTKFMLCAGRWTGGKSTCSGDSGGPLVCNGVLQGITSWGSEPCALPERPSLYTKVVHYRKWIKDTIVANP
# T2 sequence (P20151 25-261): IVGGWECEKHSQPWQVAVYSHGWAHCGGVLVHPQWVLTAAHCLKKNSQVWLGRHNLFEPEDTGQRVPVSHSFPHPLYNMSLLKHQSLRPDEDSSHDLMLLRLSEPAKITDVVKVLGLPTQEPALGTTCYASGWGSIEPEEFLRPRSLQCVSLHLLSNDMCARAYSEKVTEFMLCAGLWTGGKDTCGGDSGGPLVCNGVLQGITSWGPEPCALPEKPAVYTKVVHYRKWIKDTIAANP
compound,measurement,setting,value
CCC[C@H](NC(=O)[C@H](CCC(N)=O)NC(=O)[C@H](CC(N)=O)NC(=O)CCCCCNC(=O)CCCC[C@@H]1SC[C@@H]2NC(=O)N[C@@H]21)C(=O)NC(c1ccc(C(N)=O)cc1)P(=O)(Oc1ccccc1)Oc1ccccc1 (stereo partly drawn) [compound 20],concentration at which maximal KLK3 labeling was achieved,KLK3,1 µM
same,lowest concentration with readily detectable KLK3 labeling,KLK3,130 nM
same,inhibition of KLK2,KLK2,no inhibition

# From article PMC9282638, “A Suite of Activity-Based Probes To Dissect the KLK Activome in Drug-Resistant Prostate Cancer” (Journal of the American Chemical Society, 2021)
